Here are results for four molecules from US20220362239A1, “PHARMACEUTICAL COMPOSITION AND METHOD FOR TREATMENT OF ACUTE RESPIRATORY DISTRESS SYNDROME (ARDS) IN CORONAVIRUS DISEASE (COVID-19)” (PHARMAZZ, INC., priority 2021, published 2022).

In data set [1] the test system is models of hypovolemic shock. As to conditions: in vivo; cited from earlier work.
Data set [2] has as its system patients with hypovolemic shock. Briefly: clinical phase II study in hypovolemic shock (NCT04056065). In kind it is in vivo, human.
Data set [3] shares this test system. Nature of the data set: phase III randomized, blinded, multicenter study in hypovolemic shock (NCT04045327). In kind it is in vivo, human. The source says:
ARDS in Shock Patients (N=105): Acute Respiratory Distress Syndrome (ARDS) was compared between day 1 (before resuscitation) and day 3 of resuscitation. In control patients receiving standard treatment the difference between means was 0.04839±0.05696 (P=0.4023). On the other hand, in centhaquine treated group the ARDS difference between means was 0.1065±0.04464 (P=0.0202).
MODS in Shock Patients (N=105): Multiple Organ Dysfunction Score (MODS) was compared between day 3 and day 7 of resuscitation. There was no improvement in MODS in the control group and the difference between means was 0.00±0.2697 (P>0.999), whereas in centhaquine group the difference between means was 0.9091±0.1964 (P=0.0001).

Data set [4] relates to swine model of in hospital cardiac arrest. As to conditions: in vivo; cited from earlier work.
Data set [5] has as its system COVID-19 patients. Briefly: centhaquine (Lyfaquin) in COVID-19 patients. The data set is classed as in vivo, human. The note with it: for slope of SpO2/FiO2 versus age of patient: basal slope −1.062. The protocol: The effect of centhaquine (Lyfaquin®) was determined COVID-19 patients. A significant improvement in oxygen saturation (SpO2) of COVID-19 patients by intravenous administration of centhaquine in the dose of 0.01 mg/kg was observed (FIG. 2). An improvement of SpO2 improved by 12.40 units within 2 hours of administration of centhaquine and further treatment with centhaquine led to an improvement of SpO2 by about 20 units.
We also determined the effect of age on the improvement in ratio of SpO2 and FiO2 (SpO2/FiO2) after administration of centhaquine (FIG. 3). […] Centhaquine (Lyfaquin®) improved SpO2/FiO2 in COVID-19 patients.
WHO Ordinal Scale was used to determine whether centhaquine (Lyfaquin®) improved the outcome of patients with COVID-19 (FIG. 5).

For the next data set, the system named is swine model of shock. The note with it: in vivo; cited from earlier work.
In the next data set the test system is healthy human subjects. Briefly: Phase I safety study (NCT02408731). The data set is classed as in vivo. The source says: Centhaquine has been evaluated for its safety, sensitivity and toxicity in various species for single and multiple doses and acute as well as chronic exposure (33).
Centhaquine has been evaluated for its safety, sensitivity and toxicity in various species for single and multiple doses and acute as well as chronic exposure (33). […] Safety and efficacy of centhaquine is established (Phase I, phase II and phase III clinical studies)

Data set [6] concerns patients with hypovolemic shock. Briefly: combined / metanalysis of phase II and III trials in hypovolemic shock.
From the text: In a 105-patient randomized, blinded, multicenter study (CTRI/2019/01/017196; NCT04045327) a total of 34 (22 male and 12 female) patients in control and 68 (41 male and 27 female) patients in centhaquine groups completed the study. […] In total 180 human subjects have been studied (combined phase I, II and III), out of which 155 were patients with hypovolemic shock.
The subject of another data set is SARS-CoV-2. The note with it: cited from earlier work.
The subject of data set [7] is SARS-CoV-2 viral load in nasopharyngeal swabs. The note with it: 600 mg daily; day 6 post inclusion compared to controls; cited from earlier work.
Data set [8] has as its system COVID-19 patients. The note with it: 13 patients; inhalation 10 mg; cited from earlier work.

As for `Cc1cccc(N2CCN(CCc3ccc4ccccc4n3)CC2)c1` [centhaquine], the survival result in [1] was “improves survival”. Besides, the mortality (commonly the share of the test organisms that died) was “reduced mortality” in data set [2] (human, in vivo); 2.15% in data set [6] (155 patients with hypovolemic shock, versus 9.68% with standard treatment); 2.20% in data set [6] (metanalysis of phase II and III trials, versus 10.71%). The use of vasopressors result in data set [2] (human, in vivo) is listed as “reduction in use of vasopressors”. The base-deficit result in data set [2] (p<0.0001) was “highly significant efficacy”. For the same molecule, in [2] (p<0.0001), the blood pressure entry is listed as “highly significant efficacy”. Also, in [2] (p=0.0012), the lactate levels entry is listed as “highly significant efficacy”. Also, the “adverse events related to centhaquine” value in data set [2] (phase II) and in data set [3] (phase III) was “NO adverse events” throughout. The “ARDS difference between means” value in data set [3] (day 1 (before resuscitation) vs day 3 of resuscitation, P=0.0202) is listed as 0.1065±0.04464. In data set [3] (day 3 of resuscitation, compared to control, P=0.046), the blood lactate levels entry is on record as “significantly lower”. Besides, the “MODS difference between means” value in [3] (day 3 vs day 7 of resuscitation, P=0.0001) stood at 0.9091±0.1964. The molecule also gave a 28-day all-cause mortality in data set [3] (versus 11.76% with standard treatment, P=0.0742) of 2.94%. The “efficacy as resuscitative agent” value in data set [4] is “highly effective”. The “slope of SpO2/FiO2 versus age of patient” value in the data set with COVID-19 patients [5] (at 2 hours of treatment) is −0.5905; in the data set with COVID-19 patients [5] (at 4 hours of treatment), −0.2718. Further, in the data set with COVID-19 patients [5] (at 72 hours of resuscitation, N=10, p=0.0169), the “improvement in WHO Ordinal Scale, mean difference” value worked out at 0.7444. The “patients who did not need oxygen therapy” value with COVID-19 patients [5] (at 72 hours of treatment) was “Four out of 10”. In addition, the “improvement of oxygen saturation (SpO2)” value is given as “about 20 units” in the data set on COVID-19 patients [5] (further treatment with centhaquine) and 12.40 units with COVID-19 patients [5] (within 2 hours of intravenous centhaquine 0.01 mg/kg). Moreover, the “improvement of SpO2/FiO2” value with COVID-19 patients [5] (in 4 hours) was 41.42 units; in the data set on COVID-19 patients [5] (within 2 hours), 34.48 units. The “Horowitz index (PaO2/FiO2 ratio)” value with swine model of shock is given as “improved”. Besides, the pulmonary edema entry with swine model of shock is “significantly reduced”. Besides, the safety and tolerability entry in the data set with healthy human subjects is “safe and well tolerated”. For the same molecule, the mortality odds ratio in data set [6] (155 patients, 95% CI 1.162-24.18, P=0.0190) is listed as 4.875; in data set [6] (metanalysis of phase II and III, 95% CI 1.27-26.50, p=0.0271), 5.340. Besides, in data set [6] (N=155), the ARDS scores entry was “significantly improved”. The MODS score entry in [6] (N=155) was “significantly improved”.
`CCN(CC)CCCC(C)Nc1ccnc2cc(Cl)ccc12` (stereo not shown) [chloroquine]: the “inhibition of SARS-CoV-2 in vitro” value in the data set with SARS-CoV-2 is recorded as “effectively inhibit”.
For the molecule `CCN(CCO)CCCC(C)Nc1ccnc2cc(Cl)ccc12` (stereo not shown) [hydroxychloroquine], the viral carriage result in [7] is given as “significant reduction”.

B1: plasminogen: plasminogen supplementation given by inhalation, 10 mg dissolved in 2 ml sterile water (protein, UniProt P00747 20-810, looked up)
Plasminogen: EPLDDYVNTQGASLFSVTKKQLGAGSIEECAAKCEEDEEFTCRAFQYHSKEQQCVIMAENRKSSIIIRMRDVVLFEKKVYLSECKTGNGKNYRGTMSKTKNGITCQKWSSTSPHRPRFSPATHPSEGLEENYCRNPDNDPQGPWCYTTDPEKRYDYCDILECEEECMHCSGENYDGKISKTMSGLECQAWDSQSPHAHGYIPSKFPNKNLKKNYCRNPDRELRPWCFTTDPNKRWELCDIPRCTTPPPSSGPTYQCLKGTGENYRGNVAVTVSGHTCQHWSAQTPHTHNRTPENFPCKNLDENYCRNPDGKRAPWCHTTNSQVRWEYCKIPSCDSSPVSTEQLAPTAPPELTPVVQDCYHGDGQSYRGTSSTTTTGKKCQSWSSMTPHRHQKTPENYPNAGLTMNYCRNPDADKGPWCFTTDPSVRWEYCNLKKCSGTEASVVAPPPVVLLPDVETPSEEDCMFGNGKGYRGKRATTVTGTPCQDWAAQEPHRHSIFTPETNPRAGLEKNYCRNPDGDVGGPWCYTTNPRKLYDYCDVPQCAAPSFDCGKPQVEPKKCPGRVVGGCVAHPHSWPWQVSLRTRFGMHFCGGTLISPEWVLTAAHCLEKSPRPSSYKVILGAHQEVNLEPHVQEIEVSRLFLEPTRKDIALLKLSSPAVITDKVIPACLPSPNYVVADRTECFITGWGETQGTFGAGLLKEAQLPVIENKVCNRYEFLNGRVQSTELCAGHLAGGTDSCQGDSGGPLVCFEKDKYILQGVTSWGLGCARPNKPGVYVRVSRFVTWIEGVMRNN
In the case of B1, in the data set on COVID-19 patients [8], the “patients with improved oxygen saturation” value is 6 patients and the “patients with improvement in density of 'ground glass' opacity” value was 5 patients.
